According to patent US20230243812A1, “[…] TISSUE […] METHODS FOR FORMATION AND USE THEREOF” (President and Fellows of Harvard College, priority 2022, published 2023):
“Also recorded” adds a separate entry of the source.

Tested on: muscular bilayer tissues of biohybrid fish (human stem cell-derived CMs)
Experiment: Antagonistic contraction and swimming performance of self-paced biohybrid fish treated with stretch-activated channel blockers
Type: cell-based
Conditions: for Spontaneous frequencies of treated muscular bilayer tissues (frequency-domain analysis of tail-beat angle) / Empirical probability of antagonistic contraction / Moving (swimming) speed: 250 μM streptomycin or 100 μM Gd3+; for Spontaneous frequencies of treated muscular bilayer tissues (frequency-domain analysis of tail-beat angle): power spectral density; for Empirical probability of antagonistic contraction / Moving (swimming) speed: self-paced biohybrid fish, at least 24 hours
Procedure: The biohybrid fish was placed in Tyrode's solution (1.8 mM CaCl2, 5 mM glucose, 5 mM Hepes, 1 mM MgCl2, 5.4 mM KCl, 135 mM NaCl, and 0.33 mM NaH2PO4 in deionized water, pH 7.4, at 37° C.; Sigma Aldrich, St. Louis, Mo.) in a 22 cm square chamber (VWR International, Radnor, Pa.) on a hotplate (VWR International, Radnor, Pa.) and temperature was maintained at 35° C. to 37° C. The recording of swimming performance of biohybrid fish was filmed with a sCMOS camera (Pco.edge, PCO AG, Germany) coupled with a zoom camera lens (Thorlabs Inc, Newton, N.J.) at 50 frames per second or a single-lens recorder (AXP55 4K Handycam, Sony, Japan) with a 26.8 mm wide-angle lens at 50 frames per second.
To check the effect of mechanical signaling on the antagonistic contraction of muscular bilayer tissues, the biohybrid fish were treated with 250 μM streptomycin or 100 μM Gd^3+ (both from Sigma-Aldrich, St. Louis, Mo.) before recording, streptomycin or Gd^3+ for at least 24 hours.
Digital videos recorded during locomotion experiments were converted to image stacks using a custom-made Matlab program (24) (R2020b, Mathworks, Natick, Mass.). The head, body, and tail positions of the biohybrid fish were tracked using an image processing software (ImageJ, NIH, Bethesda, Md.). The moving distance of the biohybrid fish was measured during each tail-beat cycle, and the swimming speed was calculated by dividing the cumulative distance travelled by the total time. Tail-beat amplitude was measured as the distance between maximum right and left excursions. Tail-beat angle (θ) was calculated as the body angle difference between chord lines of its anterior body and caudal fin at the maximum right and left excursions. Antagonistic contraction was determined by checking whether a muscle contraction induced the subsequent contraction of the opposite side muscle with any delay or not. The empirical probability of antagonistic contraction was determined by dividing the number of antagonistic contractions by the total number of contractions.

[1] = after Gd3+ treatment versus before

| Compound | Spontaneous frequencies of treated muscular bilayer tissues (frequency-domain analysis of tail-beat angle) | Reduction in Re (Reynolds number) [1] [%] | Reduction in Sw (Swimming number) [1] [%] | Empirical probability of antagonistic contraction | Moving (swimming) speed | Empirical probability of antagonistic contraction (listed as Gd3+) |
| --- | --- | --- | --- | --- | --- | --- |
| [Gd+3] [Gd^3+, gadolinium] | not harmonic | 80.8 | 40.6 | disrupted antagonistic contraction; also recorded: sensitive; also recorded: significantly decreased | reduced | reduced the chance of antagonistic muscle contraction |
| [H]/N=C(/N)N[C@H]1[C@H](O)[C@@H](O)[C@H](O[C@@H]2O[C@@H](C)[C@](O)(C=O)[C@H]2O[C@@H]2O[C@@H](CO)[C@H](O)[C@@H](O)[C@@H]2NC)[C@@H](N/C(N)=N\[H])[C@@H]1O [streptomycin] | not harmonic | – | – | disrupted antagonistic contractions; also recorded: sensitive; also recorded: reduced the chance of antagonistic muscle contraction; also recorded: significantly decreased | reduced | – |
